Values quoted from earlier work in patent US7332520B2, “Fused indoles as dipeptidyl peptidase inhibitors for the treatment or prevention of diabetes” (Merck & Co., Inc., priority 2003, dated 2008).

Experiments:
hematopoiesis = conditions: mouse, cyclophosphamide-induced neutropenia
DP-IV = target: T1, DP-IV (Homo sapiens, UniProt P27487)
T1 construct: GRF is rapidly degraded in plasma to GRF[3-44]
T1 sequence (P27487 39-766 limits assumed): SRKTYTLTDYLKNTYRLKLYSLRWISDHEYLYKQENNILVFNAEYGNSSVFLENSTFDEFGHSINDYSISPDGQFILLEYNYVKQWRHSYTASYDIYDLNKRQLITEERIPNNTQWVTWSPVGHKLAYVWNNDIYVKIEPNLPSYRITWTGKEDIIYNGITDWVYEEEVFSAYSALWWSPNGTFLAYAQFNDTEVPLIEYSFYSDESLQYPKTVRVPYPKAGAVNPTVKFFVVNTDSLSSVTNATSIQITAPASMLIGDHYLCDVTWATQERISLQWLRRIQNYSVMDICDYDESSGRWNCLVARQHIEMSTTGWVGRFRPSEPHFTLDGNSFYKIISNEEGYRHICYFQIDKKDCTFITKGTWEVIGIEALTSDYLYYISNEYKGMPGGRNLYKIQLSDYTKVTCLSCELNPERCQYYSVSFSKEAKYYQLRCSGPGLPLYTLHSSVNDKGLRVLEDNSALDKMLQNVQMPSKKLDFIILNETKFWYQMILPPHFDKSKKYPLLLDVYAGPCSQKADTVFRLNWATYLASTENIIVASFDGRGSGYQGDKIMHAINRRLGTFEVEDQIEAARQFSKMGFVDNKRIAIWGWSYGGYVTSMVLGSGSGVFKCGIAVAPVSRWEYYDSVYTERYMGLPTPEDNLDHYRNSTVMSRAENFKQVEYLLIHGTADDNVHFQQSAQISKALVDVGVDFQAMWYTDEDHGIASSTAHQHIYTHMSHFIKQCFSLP

SMILES	hematopoiesis (hematopoiesis)	degradation of GRF in plasma to GRF[3-44] (DP-IV)
CC(C)[C@H](N)C(=O)N1CCC[C@H]1B(O)O [Val-Boro-Pro]	stimulated hematopoiesis	
CC[C@H](C)[C@H](N)C(=O)N1CCC[C@H]1C(=O)N[C@H](C(=O)O)[C@@H](C)CC [diprotin A]		prevented
